Publication PMC12064818, “A general assay platform to study protein pharmacology using ligand-dependent structural dynamics” (Nature Communications, 2025)
Where “and” joins values, the source holds several entries; their conditions need not be identical. Equal values may be shown once. Read-outs that look alike come from different tables or passages of the source.

What was measured:
NLuc = target: T1, NLuc (Oplophorus gracilirostris, UniProt Q9GV45, A31E/A60N/A81I/F95D/I117V/K70R/L54V/L99Q/M102K/N193R/P142E/Q151K/Q38R/Q45L/V71I/Y165I); type: biochemical; settings: 32.8 µM ligand; for SDR assay statistics Ave RLU / SDR assay statistics S:B / SDR assay statistics S:N / SDR assay statistics Z’: Standard functional and SDR assays are the same
T1 construct: His tag (inferred from IMAC purification); made in house; host or cells: E. coli
Outline: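 Luminescence was read 10 min after Nano-Glo reagent addition. Enzyme was 1 nM NLuc in PBS/0.05% IGEPAL buffer, with or without ATP.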

[1] = target: FLuc-C-NLuc (firefly luciferase) (Photinus pyralis, UniProt P08659, form not given/L550V); assay: SDR assay, FLuc-C-NLuc; settings: for SDR + 10 mM ATP / SDR No ATP: 1 nM FLuc-C-NLuc, replicates; for SDR + 10 mM ATP / SDR No ATP / 1 nM FLuc-C-NLuc + 10 mM ATP, Mean / 1 nM FLuc-C-NLuc No ATP, Mean: Log [PTC124]; for SDR assay statistics Ave RLU / SDR assay statistics S:B / SDR assay statistics S:N / SDR assay statistics Z’: 32.8 µM ligand; for 1 nM FLuc-C-NLuc + 10 mM ATP, Mean / 1 nM FLuc-C-NLuc No ATP, Mean: SDR
FLuc-C-NLuc (firefly luciferase), sequence (P08659 2-550 L550V, form open): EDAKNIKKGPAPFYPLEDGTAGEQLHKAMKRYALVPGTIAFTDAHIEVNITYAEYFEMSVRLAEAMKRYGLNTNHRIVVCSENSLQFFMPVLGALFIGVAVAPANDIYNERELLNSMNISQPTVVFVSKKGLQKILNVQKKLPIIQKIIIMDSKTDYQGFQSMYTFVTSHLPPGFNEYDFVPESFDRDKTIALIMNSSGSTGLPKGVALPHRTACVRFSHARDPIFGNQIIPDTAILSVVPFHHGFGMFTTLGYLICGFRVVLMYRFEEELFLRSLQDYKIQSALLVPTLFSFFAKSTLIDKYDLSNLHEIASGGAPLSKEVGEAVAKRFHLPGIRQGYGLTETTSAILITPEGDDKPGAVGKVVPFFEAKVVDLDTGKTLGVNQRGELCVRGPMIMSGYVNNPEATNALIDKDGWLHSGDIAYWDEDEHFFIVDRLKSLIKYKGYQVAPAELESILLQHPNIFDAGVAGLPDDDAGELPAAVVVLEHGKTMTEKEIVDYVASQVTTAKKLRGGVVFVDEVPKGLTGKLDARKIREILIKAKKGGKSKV

T1 sequence (Q9GV45 other isoform, or with tags, fused parts or gaps with the stated changes): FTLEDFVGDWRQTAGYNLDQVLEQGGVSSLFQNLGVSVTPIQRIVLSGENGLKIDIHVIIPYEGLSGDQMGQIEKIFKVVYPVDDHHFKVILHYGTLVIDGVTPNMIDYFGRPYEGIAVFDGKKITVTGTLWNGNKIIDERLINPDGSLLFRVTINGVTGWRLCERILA

## O=C(O)c1cccc(-c2noc(-c3ccccc3F)n2)c1 [PTC124, reference compound]
NLuc; NLuc (1 nM) + 10 mM ATP
  Standard assay statistics Ave RLU: 17397.2 RLU
  Standard assay statistics S:B: 1.0
  Standard assay statistics S:N: 0.0
  Standard assay statistics Z’: -163.485
  SDR assay statistics Ave RLU: 17397.2 RLU
  SDR assay statistics S:B: 1.0
  SDR assay statistics S:N: 0.0
  SDR assay statistics Z’: -163.485
NLuc; NLuc (1 nM) No ATP
  Standard assay statistics Ave RLU: 20065.5 RLU
  Standard assay statistics S:B: 1.0
  Standard assay statistics S:N: 0.0
  Standard assay statistics Z’: -167.215
  SDR assay statistics Ave RLU: 20065.5 RLU
  SDR assay statistics S:B: 1.0
  SDR assay statistics S:N: 0.0
  SDR assay statistics Z’: -167.215
[1]; 0 μM ATP
  pSDR50, FLuc-C-NLuc (1 nM): 5.88 ± 0.04
[1]; M -4.48
  SDR + 10 mM ATP: 7557.2 RLU and 7497.6 RLU and 7631.5 RLU and 7551.6 RLU and 7524.6 RLU and 7378.2 RLU
  SDR No ATP: 7094.5 RLU and 7036.1 RLU and 7197.7 RLU and 7251.5 RLU and 7107.6 RLU and 7010.0 RLU
  1 nM FLuc-C-NLuc + 10 mM ATP, Mean: 7523.5 RLU
  1 nM FLuc-C-NLuc No ATP, Mean: 7116.2 RLU
[1]; M -4.96
  SDR + 10 mM ATP: 8653.1 RLU and 8918.3 RLU and 8729.5 RLU and 8753.4 RLU and 8625.3 RLU and 8631.1 RLU
  SDR No ATP: 7649.4 RLU and 7690.6 RLU and 7782.9 RLU and 7784.7 RLU and 7753.8 RLU and 7789.6 RLU
  1 nM FLuc-C-NLuc + 10 mM ATP, Mean: 8718.4 RLU
  1 nM FLuc-C-NLuc No ATP, Mean: 7741.8 RLU
[1]; M -5.44
  SDR + 10 mM ATP: 9503.1 RLU and 9394.8 RLU and 9366.2 RLU and 9511.1 RLU and 9276.8 RLU and 9264.6 RLU
  SDR No ATP: 7463.4 RLU and 7521.3 RLU and 7506.8 RLU and 7660.8 RLU and 7389.5 RLU and 7591.3 RLU
  1 nM FLuc-C-NLuc + 10 mM ATP, Mean: 9386.1 RLU
  1 nM FLuc-C-NLuc No ATP, Mean: 7522.2 RLU
[1]; M -5.91
  SDR + 10 mM ATP: 9834.3 RLU and 9880.8 RLU and 9675.2 RLU and 9786.2 RLU and 9362.5 RLU and 9414.4 RLU
  SDR No ATP: 7041.2 RLU and 7015.2 RLU and 7004.0 RLU and 7050.2 RLU and 7076.1 RLU and 7039.0 RLU
  1 nM FLuc-C-NLuc + 10 mM ATP, Mean: 9658.9 RLU
  1 nM FLuc-C-NLuc No ATP, Mean: 7037.6 RLU
[1]; M -6.39
  SDR + 10 mM ATP: 9915.0 RLU and 9970.8 RLU and 10012.5 RLU and 10081.2 RLU and 9830.9 RLU and 9904.0 RLU
  SDR No ATP: 6691.1 RLU and 6782.7 RLU and 6754.8 RLU and 6847.3 RLU and 6762.8 RLU and 6799.3 RLU
  1 nM FLuc-C-NLuc + 10 mM ATP, Mean: 9952.4 RLU
  1 nM FLuc-C-NLuc No ATP, Mean: 6773.0 RLU
[1]; M -6.87
  SDR + 10 mM ATP: 10082.6 RLU and 10234.0 RLU and 10143.0 RLU and 10158.0 RLU and 9950.0 RLU and 10015.6 RLU
  SDR No ATP: 6611.5 RLU and 6294.6 RLU and 6649.4 RLU and 6762.3 RLU and 6579.8 RLU and 6635.0 RLU
  1 nM FLuc-C-NLuc + 10 mM ATP, Mean: 10097.2 RLU
  1 nM FLuc-C-NLuc No ATP, Mean: 6588.7 RLU
[1]; M -7.35
  SDR + 10 mM ATP: 10197.1 RLU and 10347.4 RLU and 10179.3 RLU and 10327.2 RLU and 10158.4 RLU and 10151.6 RLU
  SDR No ATP: 6611.5 RLU and 6675.5 RLU and 6753.6 RLU and 6721.7 RLU and 6667.7 RLU and 6659.2 RLU
  1 nM FLuc-C-NLuc + 10 mM ATP, Mean: 10226.8 RLU
  1 nM FLuc-C-NLuc No ATP, Mean: 6681.5 RLU
[1]; M -7.82
  SDR + 10 mM ATP: 10273.2 RLU and 10529.0 RLU and 10260.9 RLU and 10390.3 RLU and 10195.8 RLU and 10173.3 RLU
  SDR No ATP: 6601.3 RLU and 6794.9 RLU and 6657.3 RLU and 6777.0 RLU and 6066.9 RLU and 6627.0 RLU
  1 nM FLuc-C-NLuc + 10 mM ATP, Mean: 10303.8 RLU
  1 nM FLuc-C-NLuc No ATP, Mean: 6587.4 RLU
[1]; M -8.30
  SDR + 10 mM ATP: 10428.2 RLU and 10351.9 RLU and 10431.4 RLU and 10340.3 RLU and 10350.0 RLU and 10135.7 RLU
  SDR No ATP: 6797.1 RLU and 6778.7 RLU and 6811.3 RLU and 6783.1 RLU and 6776.8 RLU and 6755.1 RLU
  1 nM FLuc-C-NLuc + 10 mM ATP, Mean: 10339.6 RLU
  1 nM FLuc-C-NLuc No ATP, Mean: 6783.7 RLU
[1]; M -8.78
  SDR + 10 mM ATP: 10307.0 RLU and 10240.9 RLU and 10295.8 RLU and 10255.7 RLU and 10212.3 RLU and 10156.0 RLU
  SDR No ATP: 6765.6 RLU and 6820.8 RLU and 6789.0 RLU and 6870.9 RLU and 6762.2 RLU and 6786.7 RLU
  1 nM FLuc-C-NLuc + 10 mM ATP, Mean: 10244.6 RLU
  1 nM FLuc-C-NLuc No ATP, Mean: 6799.2 RLU
[1]; M -9.25
  SDR + 10 mM ATP: 9955.6 RLU and 10061.6 RLU and 10070.3 RLU and 10144.7 RLU and 9901.2 RLU and 9937.3 RLU
  SDR No ATP: 6778.5 RLU and 6738.4 RLU and 6784.4 RLU and 6835.7 RLU and 6812.5 RLU and 6775.6 RLU
  1 nM FLuc-C-NLuc + 10 mM ATP, Mean: 10011.8 RLU
  1 nM FLuc-C-NLuc No ATP, Mean: 6787.5 RLU
[1]; M -9.73
  SDR + 10 mM ATP: 9060.9 RLU and 8791.4 RLU and 9269.7 RLU and 9103.3 RLU and 8979.5 RLU and 9077.2 RLU
  SDR No ATP: 6814.0 RLU and 6880.4 RLU and 6857.6 RLU and 6871.7 RLU (2×) and 6648.1 RLU
  1 nM FLuc-C-NLuc + 10 mM ATP, Mean: 9047.0 RLU
  1 nM FLuc-C-NLuc No ATP, Mean: 6823.9 RLU
[1]; M -10.21
  SDR + 10 mM ATP: 8039.8 RLU and 7910.0 RLU and 8237.3 RLU and 8034.2 RLU and 8059.8 RLU and 8095.1 RLU
  SDR No ATP: 6863.1 RLU and 6890.7 RLU and 6909.9 RLU and 6915.4 RLU and 6885.5 RLU and 6851.9 RLU
  1 nM FLuc-C-NLuc + 10 mM ATP, Mean: 8062.7 RLU
  1 nM FLuc-C-NLuc No ATP, Mean: 6886.1 RLU
[1]; M -10.69
  SDR + 10 mM ATP: 7243.2 RLU and 7192.1 RLU and 7498.0 RLU and 7333.4 RLU and 7436.9 RLU and 7459.7 RLU
  SDR No ATP: 6866.7 RLU and 6851.6 RLU (2×) and 6906.1 RLU and 6919.7 RLU and 6944.4 RLU
  1 nM FLuc-C-NLuc + 10 mM ATP, Mean: 7360.6 RLU
  1 nM FLuc-C-NLuc No ATP, Mean: 6890.0 RLU
[1]; M -11.16
  SDR + 10 mM ATP: 6972.7 RLU and 6906.8 RLU (2×) and 7044.6 RLU and 7092.1 RLU and 7092.6 RLU
  SDR No ATP: 6852.5 RLU and 6810.5 RLU and 6865.3 RLU and 6827.1 RLU and 6885.6 RLU and 6853.6 RLU
  1 nM FLuc-C-NLuc + 10 mM ATP, Mean: 7002.6 RLU
  1 nM FLuc-C-NLuc No ATP, Mean: 6849.1 RLU
[1]; M -11.64
  SDR + 10 mM ATP: 6987.2 RLU and 6840.0 RLU and 7030.1 RLU and 6788.2 RLU and 7034.1 RLU and 6802.7 RLU
  SDR No ATP: 6913.4 RLU and 6769.3 RLU and 6893.0 RLU and 6868.3 RLU and 6877.6 RLU and 6825.9 RLU
  1 nM FLuc-C-NLuc + 10 mM ATP, Mean: 6913.7 RLU
  1 nM FLuc-C-NLuc No ATP, Mean: 6857.9 RLU
[1]; 10 μM ATP
  pSDR50, FLuc-C-NLuc (1 nM): 9.95 ± 0.05
[1]; FLuc-C-NLuc (1 nM) + 10 mM ATP
  SDR assay statistics Ave RLU: 8287.4 RLU
  SDR assay statistics S:B: 1.2
  SDR assay statistics S:N: 3.4
  SDR assay statistics Z’: -0.259
[1]; FLuc-C-NLuc (1 nM) No ATP
  SDR assay statistics Ave RLU: 7850.3 RLU
  SDR assay statistics S:B: 1.2
  SDR assay statistics S:N: 2.6
  SDR assay statistics Z’: -0.605
